{"source": "patent EP2753335B1", "about": "“AN ANTHRACYCLINE FOR THE TREATMENT OF SEPSIS” (Instituto de Medicina Molecular, priority 2011, dated 2013)", "key": {"[1]": {"test_system": "IL-1β", "test": "Concentration-response validation: IL-1β production by E. coli challenged THP-1 cells", "assay_type": "cell-based, human", "experimental": "(§1) • Figure 1 represents a primary screen to identify compounds in the Spectrum Collection library that inhibit the secretion of TNF and IL-1β. (A) it is a two-dimension plot of TNF and IL-1β production Z scores calculated upon THP-1 cells challenge with PFA-fixed E. coli for 24 hours in the presence of 10µM of each compound. The square defines the area in which compounds are considered primary hits, i.e., inhibiting both TNF and IL-1β, (B) represents the IL-1β and TNF production by E. coli challenged THP-1 cells (4 hours) after a pre-incubation (1 hour) with increasing concentrations of epirubicin. Results shown represent mean ± standard deviation from triplicate samples in one of 3 independent assays. (C) is a transcriptional profiling of THP-1 cell line response to epirubicin and unsupervised clustering of microarray expression profiles. […] Plots depict relative expression of IL-1β, TNF, CCL2, CXCL10, STAT1, STAT2, START4 and STAT5a as assessed by qRT-PCR in E. coli challenged THP-1 cells (4 hours) after a pre-incubation (1 hour) with 5µM epirubicin. […] Results shown represent mean values ± SEM from triplicate readings per animal. […] (D) relates to the expression of IL-1β, TNF, CCL2 and CXCL10 as assessed by qRT-PCR in THP-1 cells treated as in (C). […]"}, "[2]": {"test_system": "THP-1 cells", "test": "Autophagy induction in THP-1 cells, flow cytometry with Cyto-ID Green", "assay_type": "cell-based, human", "settings": "KU-55933 2µM plus epirubicin 1µM (1 hour), PFA-fixed E. coli 4 hours"}, "[3]": {"test_system": "C57BL/6 mice subjected to CLP", "test": "Cecal ligation and puncture (CLP) mouse model of severe sepsis, survival", "assay_type": "in vivo", "settings": "for protection against severe CLP (survival, in words): doxorubicin 0.5ug/g, daunorubicin 0.6µg/g body weight at the time of procedure and 24 hours later, Figure 6", "experimental": "We choose the cecal ligation and puncture (CLP) mouse model to investigate the in vivo effects of epirubicin. In CLP, sepsis results from a polymicrobial infectious abdominal origin, leading to bacteraemia and a systemic inflammatory response^15.\nAnimal care and experimental procedures were conducted in accordance with Portuguese and US guidelines and regulations after approval by the respective local committees (Instituto de Medicina Molecular and Instituto Gulbenkian de Ciência). All mice used were 8-12 weeks old. Mice were bred and maintained under specific pathogen-free (SPF) conditions. C57BL/6 and C57BL/6 ATM^-/- were obtained from the Instituto Gulbenkian de Ciência (a kind gift from Dr. Vasco Barreto). C57BL/6 Nrf2^-/- mice were provided originally from the RIKEN BioResource Center (Koyadai, Tsukuba, Ibaraki, Japan)^31 and subsequently at the Institute Gulbenkian de Ciência. Cecal Ligation and Puncture was performed as described previously^15."}, "[4]": {"test_system": "IL-1β", "test": "In vitro chemical screen (Spectrum collection): IL-1β secretion by E. coli challenged THP-1 cells, DAS-ELISA", "assay_type": "cell-based, human", "experimental": "(§2) We identified 45 leading candidates (Figure 1A and Table I) that inhibited both cytokines.\n(§3) THP-1 human monocytes (American Tissue Culture Collection-ATCC TIB-202) were plated in 96 well plates at 10^6 cell/ml and incubated with each one of ∼2320 compounds included in the Spectrum collection (Microsource Discovery Systems, Gaylordsville, CT) at 10µM for 1 hour. Cells were then challenged with 4% PFA-fixed DH5α E.coli at a Multiplicity of Infection (MOI) of 20 bacterial cells per THP-1 cell for an additional 24 hours. The cell supernatants were collected and IL-1β and TNF cytokines quantified by DAS-ELISA, using Human IL-1β/IL-1F2 DuoSet® and Human TNF DuoSet® (R&D Systems ®), respectively, according to company's protocol.\n(§4) We generated a working subset of The RNAi Consortium (TRC) shRNA lentiviral vector library ^33,33 that allows for the silencing of most of the genes that are either human kinases or phosphatases. This subset was composed of 1440 individually arrayed lentiviral shRNA vectors targeting ∼700 genes, after selecting the most efficient shRNAs (two on average) based on available silencing efficiency data from the Broad Institute of MIT and Harvard. THP-1 cells were plated in 96 well plates at 10^6 cell/ml and infected with shRNA-expressing lentivirus. 48 hrs later infected cells were selected with puromycin. After the 3 days of selection, plates were duplicated. One of the plates was used to measure the cell number using Alamar Blue® cell viability assay (Invitrogeia®), according to manufacturer's instructions. In the other plate, cells were stimulated with 4% PFA-fixed DH5α E.coli at a Multiplicity of Infection (MOI) of 20 bacterial cells per THP-1 cell. Twenty-four hours after stimulation, cell supernatants were collected and IL-1β and TNF cytokines quantified by DAS-ELISA. All data values from IL-1β and TNF secretion assays were normalized by dividing the amount of IL-1β and TNF in the conditioned media 24, 12, 8, 6, 4 or 2 hrs after E. coli stimulation by the number of cells in each well and then by the average concentration per cell of the plate. Results were logarithmic natural transformed. Scores were sorted in ascending order and graphed. We calculated 1.5 SDEVs above and below the mean to identify the genes that changed IL-1β and TNF secretion when silenced. The same approach was used to identify the compounds that changed IL-1β and TNF secretion. The selected genes were submitted to two or more rounds of phenotypic validation."}, "[5]": {"test_system": "TNF", "test": "In vitro chemical screen (Spectrum collection): TNF secretion by E. coli challenged THP-1 cells, DAS-ELISA", "assay_type": "cell-based, human", "experimental": "as §2, §3, §4"}, "[6]": {"test_system": "muHV-4 virus", "test": "Clearance of a secondary intranasal infection one week after administration", "assay_type": "in vivo", "settings": "compared with control mice, unpublished data"}, "[7]": {"test_system": "TNF", "test": "Concentration-response validation: TNF production by E. coli challenged THP-1 cells", "assay_type": "cell-based", "settings": "Homo sapiens; E. coli challenged THP-1 cells (4 hours) after pre-incubation (1 hour) with increasing concentrations; read-out: half-inhibitory concentration (IC50) for TNF", "experimental": "as §1"}, "[8]": {"settings": "THP-1 cells, 10µM compound for 1 hour, then PFA-fixed E. coli (MOI 20) for 24 hours"}}, "note": "Counter-ions that a name gives are not always drawn. Like-named read-outs stand apart in the source and are kept apart here."}
{"smiles": "O=c1cc(-c2cccc3c2Sc2ccccc2S3)oc(N2CCOCC2)c1", "note": "[KU-55933]", "values": [{"measurement": "rescue of epirubicin-mediated IL-1β down-regulation", "setting": "[1]; KU-55933 2µM together with epirubicin 1µM, THP-1 cells, E. coli 4 hours", "value": "could be rescued"}, {"measurement": "effect of ATM inhibitor pre-treatment on epirubicin-induced autophagy", "setting": "[2]", "value": "eliminates this effect"}]}
{"smiles": "COc1cc([C@@H]2c3cc4c(cc3[C@@H](O[C@@H]3O[C@@H]5CO[C@@H](C)O[C@H]5[C@H](O)[C@H]3O)[C@H]3COC(=O)[C@H]23)OCO4)cc(OC)c1O", "note": "[etoposide]", "values": [{"measurement": "rescue of mortality induced by CLP", "setting": "[3]; etoposide 2.0µg/g body weight, at the time of procedure and 24 hours later, wildtype C57BL/6", "value": "only partially rescues the mortality induced by CLP"}]}
{"smiles": "COc1cccc2c1C(=O)c1c(O)c3c(c(O)c1C2=O)C[C@@](O)(C(C)=O)C[C@@H]3O[C@H]1C[C@H](N)[C@H](O)[C@H](C)O1", "note": "[Daunorubicin]", "values": [{"measurement": "Z score IL1b", "setting": "[4]; [8]", "value": "-0,995459172"}, {"measurement": "protection against severe CLP (survival, in words)", "setting": "[3]", "value": "comparable protection"}, {"measurement": "Z score TNFa", "setting": "[5]; [8]", "value": "-3,007093086"}]}
{"smiles": "COc1cccc2c1C(=O)c1c(O)c3c(c(O)c1C2=O)C[C@@](O)(C(=O)CO)C[C@@H]3O[C@H]1C[C@H](N)[C@@H](O)[C@H](C)O1", "note": "[Epirubicin hydrochloride]", "values": [{"measurement": "IC50", "setting": "[1]; Homo sapiens, THP-1, read-out: half-inhibitory concentration (IC50) for IL-1β", "value": 400, "unit": "nM"}, {"measurement": "Z score IL1b", "setting": "[4]; [8]", "value": "-1,212875226"}, {"measurement": "increase of survival of mice subjected to CLP", "setting": "[3]; i.p. in PBS at the time of CLP and 24hrs later, total 1.2µg/g body weight, no antibiotic, wildtype C57BL/6", "value": "~80", "unit": "%"}, {"measurement": "immune competence: clearance of secondary intranasal muHV-4 infection", "setting": "[6]", "value": "not immunocompromised"}, {"measurement": "Z score TNFa", "setting": "[5]; [8]", "value": "-4,474857631"}, {"measurement": "IC50", "setting": "[7]", "value": 500, "unit": "nM"}]}
{"smiles": "COc1cccc2c1C(=O)c1c(O)c3c(c(O)c1C2=O)C[C@@](O)(C(=O)CO)C[C@@H]3O[C@H]1C[C@H](N)[C@H](O)[C@H](C)O1", "note": "[Doxorubicin]", "values": [{"measurement": "Z score IL1b", "setting": "[4]; [8]", "value": "-2,412138965"}, {"measurement": "protection against severe CLP (survival, in words)", "setting": "[3]", "value": "comparable protection"}, {"measurement": "Z score TNFa", "setting": "[5]; [8]", "value": "-4,071115136"}]}
{"smiles": "O=C1C=C2C(=CCOC2O)O1", "note": "(stereo not shown) [Patulin]", "values": [{"measurement": "Z score IL1b", "setting": "[4]", "value": "-0,902703858"}, {"measurement": "Z score TNFa", "setting": "[5]", "value": "-2,874616362"}]}
{"smiles": "CC[C@@]1(O)C[C@H](O[C@H]2C[C@H](N(C)C)[C@H](O)[C@H](C)O2)c2c(cc3c(c2O)C(=O)c2c(O)cccc2C3=O)[C@H]1C(=O)OC", "note": "[Aklavine hydrochloride]", "values": [{"measurement": "Z score IL1b", "setting": "[4]; [8]", "value": "-1,408917561"}, {"measurement": "Z score TNFa", "setting": "[5]; [8]", "value": "-3,511681732"}]}
